According to patent US8455510B2:
pIC50, pKd: −log10 of the molar value. Where two headings read alike, the source gives them in different places. One block for each compound: values may come before it.

Columns and labels:
[1] = test system: human osteosarcoma U2SO xenograft; experiment: U2SO xenograft on nude mice; details: Table 5, oral 2.5 mg/kg, 1-5/3 w
[2] = biological target: T1, FKBP-12 protein (Homo sapiens, UniProt P62942); experiment: SPR (surface plasma resonance) binding with FKBP-12
T1 construct: purchased sigma Co
Experimental: (1) FKBP-12 protein was purchased from sigma Co.
(2) HBS-EP buffer solution (10 mM Hepes, 150 mM NaCl, 3.4 mM EDTA, 0.005% (v/v) surfactant P20, pH 7.4)
(3) Activating reagents EDC and NHS, and blocking reagents Ethanolamine, etc., were purchased from BIACORE AB Co. (Uppsala, Sweden).
(4) BIAcore 3000 and CM5 chip were purchased from BIACORE AB Co. (Uppsala, Sweden).
(2) […] was coupled to the FC2 channel on CM5 chip by using the Wizard for amino-coupling in Biacore 3000 controlling soft. 3.3 g/L of FKBP-12 protein was diluted with 10 mM NaAC (pH 4.6) to 66 μg/ml. The surface of the chip was washed by injecting a mixture of 0.1M1-(3-dimethylaminopropyl)-3-ethylcarbodiimide hydrochloride (EDCI) and 0.1M N-hydroxysuccinimide (NHS) (1:1) at a flow rate of 20 μL/min for 7 min. After that, the protein solution was injected, and then a 1M cholamine (pH 8.5) solution was fed for 7 min to block the activated surface of the chip. Preliminary screening and pharmacokinetic tests on the compounds
The binding abilities of small molecular compounds with FKBP-12 protein were evaluated by SPR (surface plasma resonance). The stock solution of the compound was 10 mM, and was diluted by HBS-EP buffer solution at given ratios. Pharmacokinetic tests were carried out by the Wizard for kinetic analysis in Biacore 3000 controlling soft. The resulted data were fitted by 1:1 Langmuir binding model or stability model in Biacore 3000 analytical soft to obtain the exact kinetic and thermodynamic constants.

[3] = in vivo; format: in vivo; details: nude, mouse; for concentration at 0.5 h / concentration at 12 h / concentration at 48 h / concentration at 2 h / concentration at 5 h: CCI-779 (prototype) concentration; for Kp: read-out: AUCtissue/AUCplasma
[4] = test system: DNFB-induced delayed type hypersensitivity reaction; experiment: DNFB-induced delayed type hypersensitivity reaction in mice; format: in vivo, BALB/c mice; details: 2 mg/kg/d, oral administration; model control 0.175 mm
Experimental: The delayed type hypersensitivity (DTH) reaction in mice was induced by DNFB to evaluate the inhibition effect of the compound on DTH in vivo. […] Preparation method: the compound was dissolved in anhydrous alcohol to prepare a stock solution (50 mg/ml), which was diluted to the desired concentration when use by using a solution of 5% PEG400, 5% Tween-80 in sterile water as a solvent. […] DNFB combined with dermal protein to form a complete antigen after sensitizing on feet of mice. One week later, mice were attacked by DNFB on ears to induce a local delayed allergic reaction, i.e., the delayed type hypersensitivity reaction to cause ear swelling, while the delayed type hypersensitivity reaction would not be observed on the ear which had not been attacked. Therefore, the ear swelling can reflect the level of the delayed type hypersensitivity reaction in mice induced by DNFB. (1) 20 μl of 0.5% DNFB solution in a mixture of acetone and olive oil (4:1) as a solvent was applied on both hind legs of mice for sensitization. […] (4) Thickness of the left and right ears of the mice was measured by a micrometer screw gauge, and the swelling was calculated by subtracting the thickness of the left ear from thickness of the right ear.

[5] = test system: T Cells; experiment: Immunosuppressive activity assay: T cells inhibitory activity; format: cell-based; details: T-cell; Table 10
[6] = Immunosuppressive activity assay: cytotoxicity; format: cell-based
[7] = test system: human rhabdomyosarcoma RH-30 xenograft; experiment: RH-30 xenograft on nude mice; details: Table 4, 5 mg/kg po, 1-5/2 w;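 also: male BALB/cA nude mice with subcutaneous RH-30 tumors, oral dosing versus solvent-fed controls, caliper tumor volume, RTV relative to grouping day, T/C as treated RTV over control RTV ×100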
Source text: Animals: BALB/cA nude mice, male, 40-45 days old, body weight: 21±2 g, provided by Shanghai Institute of Materia Medica, Chinese Academy of Sciences. License No.: SCXK (Shanghai) 2004-0002. Animal number in each group: 6 in negative control group, and 6 in administration group.
The amount of inoculated cells was 5×10^6. After the xenograft was formed by inoculation, it was used after passed for 3 generations in nude mice.

[8] = in vivo, Blood Plasma, Mean Value

T1 sequence (P62942 whole entry, species assumed): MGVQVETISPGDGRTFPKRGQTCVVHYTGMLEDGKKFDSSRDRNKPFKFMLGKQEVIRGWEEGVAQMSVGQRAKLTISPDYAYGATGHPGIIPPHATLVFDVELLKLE

binding with FKBP12 [2]: concentration-dependently bind
pKd ([2]; FKBP12): 8.99
AUC0-t (ng · h/g or ng · h/ml) ([3]; in vivo): 1098 ng·h/mL
AUC(0-t) ([3]; in vivo): 106 ng·h/mL
Sirolimus concentration, Blood Plasma, Mean Value ([3]; in vivo, 0.5 h): 123 ng/mL
Sirolimus concentration, Liver, Mean Value ([3]; in vivo, 0.5 h): 142 ng/g
Sirolimus concentration, Tumor, Mean Value ([3]; in vivo, 0.5 h): 9.03 ng/g
Sirolimus concentration, Blood Plasma, Mean Value ([3]; in vivo, 2 h): 143 ng/mL
Sirolimus concentration, Liver, Mean Value ([3]; in vivo, 2 h): 98.4 ng/g
Sirolimus concentration, Tumor, Mean Value ([3]; in vivo, 2 h): 36.3 ng/g
Sirolimus concentration, Blood Plasma, Mean Value ([3]; in vivo, 5 h): 58.2 ng/mL
Sirolimus concentration, Liver, Mean Value ([3]; in vivo, 5 h): 83.9 ng/g
Sirolimus concentration, Tumor, Mean Value ([3]; in vivo, 5 h): 30.3 ng/g
Sirolimus concentration, Blood Plasma, Mean Value ([3]; in vivo, 12 h): 14.2 ng/mL
Sirolimus concentration, Liver, Mean Value ([3]; in vivo, 12 h): 33.2 ng/g
Sirolimus concentration, Tumor, Mean Value ([3]; in vivo, 12 h): 19.1 ng/g
Sirolimus concentration, Blood Plasma, Mean Value ([3]; in vivo, 48 h): 3.08 ng/mL
Sirolimus concentration, Liver, Mean Value ([3]; in vivo, 48 h): 9.12 ng/g
Sirolimus concentration, Tumor, Mean Value ([3]; in vivo, 48 h): 16.7 ng/g
concentration at 0.5 h ([3]; in vivo, Blood Plasma): 20.5 ng/mL
concentration at 12 h ([3]; in vivo, Blood Plasma): 1.3 ng/mL
concentration at 48 h ([3]; in vivo, Blood Plasma): 0.16 ng/mL
concentration at 0.5 h [3, 8]: 30.9 ng/mL
concentration at 2 h [3, 8]: 11.7 ng/mL
concentration at 5 h [3, 8]: 3.67 ng/mL
concentration at 12 h [3, 8]: 1.27 ng/mL
concentration at 48 h [3, 8]: 0.164 ng/mL
concentration at 0.5 h ([3]; in vivo, Liver): 392 ng/g
concentration at 2 h ([3]; in vivo, Liver): 103 ng/g
concentration at 5 h ([3]; in vivo, Liver): 45.5 ng/g
concentration at 0.5 h ([3]; in vivo, Liver, Mean Value): 474 ng/g
concentration at 2 h ([3]; in vivo, Liver, Mean Value): 151 ng/g
concentration at 5 h ([3]; in vivo, Liver, Mean Value): 57.6 ng/g
concentration at 12 h ([3]; in vivo, Liver, Mean Value): 28.6 ng/g
concentration at 48 h ([3]; in vivo, Liver, Mean Value): 3.11 ng/g
concentration at 2 h ([3]; in vivo, Tumor): 31.1 ng/g
concentration at 12 h ([3]; in vivo, Tumor): 9.37 ng/g
concentration at 48 h ([3]; in vivo, Tumor): 6.48 ng/g
concentration at 2 h ([3]; in vivo, Tumor, Mean Value): 28.8 ng/g
concentration at 5 h ([3]; in vivo, Tumor, Mean Value): 16.6 ng/g
concentration at 12 h ([3]; in vivo, Tumor, Mean Value): 10.5 ng/g
concentration at 48 h ([3]; in vivo, Tumor, Mean Value): 6.52 ng/g
Cmax ([3]; in vivo, Cmax (ng/g or ng/ml)): 30.9 ng/mL
Kp ([3]; liver): 16.8
Kp ([3]; tumor): 4.77
Structure (SMILES): CO[C@H]1C[C@@H]2CC[C@@H](C)[C@@](O)(O2)C(=O)C(=O)N2CCCC[C@H]2C(=O)O[C@H]([C@H](C)C[C@@H]2CC[C@@H](OC(=O)C(C)(CO)CO)[C@H](OC)C2)CC(=O)[C@H](C)/C=C(\C)[C@@H](O)[C@@H](OC)C(=O)[C@H](C)C[C@H](C)/C=C/C=C/C=C/1C [CCI-779]
Body Weight (g) end [1]: 17.7 g
Body Weight (g) start [1]: 19.9 g
RTV [1]: 17 ± 7.0
T/C (%) [1]: 69.0%
TV (mm^3) d21 [1]: 1446 ± 630 mm^3
TV (mm^3) d0 ([1]; baseline): 85 ± 17 mm^3

Structure (SMILES): C[C@@H]1C[C@H]2[C@@H]3CCC4=CC(=O)C=C[C@]4(C)[C@@]3(F)[C@@H](O)C[C@]2(C)[C@@]1(O)C(=O)CO [Dex]
average ear swelling degree [4]: 0.13 mm

pIC50 [5]: 5.28
Structure (SMILES): CO[C@H]1CC2CC[C@@H](C)[C@@](O)(O2)C(=O)C(=O)N2CCCCC2C(=O)O[C@H]([C@H](C)C[C@@H]2CC[C@@H](OC(=O)OCC3COC(C)(C)O3)[C@H](OC)C2)CC(=O)[C@H](C)/C=C(\C)[C@@H](OC(=O)OCC2COC(C)(C)O2)[C@@H](OC)C(=O)[C@H](C)C[C@H](C)/C=C/C=C/C=C/1C (some centres unmarked) [Y230]
Safety Index CC50/IC50 ([6]; Table 10): >18.9
CC50 ([6]; Table 10, value beyond the >100 μM bound, read-out: Cytotoxicity CC50, value in brackets): 39800 µM
CC50 ([6]; Table 10, read-out: Cytotoxicity CC50): > 100 µM

Structure (SMILES): CO[C@H]1CC2CC[C@@H](C)[C@@](O)(O2)C(=O)C(=O)N2CCCCC2C(=O)O[C@H]([C@H](C)C[C@@H]2CC[C@@H](O)[C@H](OC)C2)CC(=O)[C@H](C)/C=C(\C)[C@@H](OC(=O)OCC(O)CO)[C@@H](OC)C(=O)[C@H](C)C[C@H](C)/C=C/C=C/C=C/1C (some centres unmarked) [Y31-1]
Body Weight (g) end [7]: 21.2 g
Body Weight (g) start [7]: 20.2 g
RTV [7]: 2.4 ± 1.0
T/C (%) [7]: 55.7%
TV (mm^3) d14 [7]: 381 ± 158 mm^3
TV (mm^3) d0 ([7]; baseline): 164 ± 44 mm^3
